Measured values taken from PMC11372076, “A dual inhibitor of PIP5K1C and PIKfyve prevents SARS-CoV-2 entry into cells” (Experimental & Molecular Medicine, 2024).

Columns and labels:
[1] = system: Delta variant (B.1.617.2) spike-pseudotyped virus; type: cell-based, SARS-CoV-2
[2] = system: Omicron variant (BA.1) spike-pseudotyped virus; type: cell-based, SARS-CoV-2

## c1ccc(-c2cc(Nc3nc(-c4ccncc4)nc4ccccc34)n[nH]2)cc1 [UNI418, N -(5-phenyl-1 H -pyrazol-3-yl)-2-(4-pyridinyl)-4-quinazolinamine]
[1]
  pseudotyped virus entry: markedly inhibited
[2]
  pseudotyped virus entry: markedly inhibited
